The values below come from article PMC11074101 (Cell Discovery, 2024).

Common to all, as to format: cell-based
For one test, the target named is T1, MCHR1 Q196(3.36)A (Homo sapiens, UniProt Q99705, Q127A).
T1 construct: expressed in transfected cells; host or cells: HEK293
The test is described as follows: GloSensor cAMP assay, MCHR1 Q196A. The note with it: HEK293, mean ± S.E.M., n = 3 in triplicate. The text has this: (§1) The gene sequences encoding human MCHR1 (residues 70‒405) and MCHR2 (residues 1‒331, with L256^6.40Y mutation) were subcloned into pFastBac vector (Invitrogen) with an N-terminal haemagglutinin signal peptide (HA) and a thermostabilized BRIL fusion, followed by a C-terminal 15-amino acid linker, a LgBiT subunit and two MBPs to facilitate receptor expression and stability. The Gαi construct was designed with dominant-negative mutations S47N, G203A, A326S, and E245A to decrease the affinity of nucleotide-binding and stable Gαβγ complex. The mini-Gαq construct was designed with the C-terminal α-helix (αH5) of Gαq, which is critical for G protein coupling selectivity. The core of the construct, known as the Ras domain, is derived from Gαs. This design choice was made to enable the binding of the nanobody Nb35, which stabilizes the complex for cryo-EM analysis. […] Rat Gβ1 was constructed with a N-terminal 16× His-tag for purification and a C-terminal HiBiT to form a NanoBiT with LgBiT. […] The wild-type and mutants of MCHR1 and MCHR2 were constructed into the pcDNA6.0 vector […] for functional assays.
(§2) GloSensor cAMP assay was used to detect the downstream Gαi signal of MCHR1 using GloSensor cAMP Reagent (Promega).
Background: Changes in cAMP serve as a functional read-out for many G protein-coupled receptors.

Another test addresses T2, MCHR1 I366(7.39)A (Homo sapiens, UniProt Q99705, I297A).
T2 construct: expressed in transfected cells; host or cells: HEK293
The test is described as follows: GloSensor cAMP assay, MCHR1 I366A. The note with it: HEK293, mean ± S.E.M., n = 3 in triplicate.
Source text: as §1, §2

The target of another test is T3, MCHR2 F177(ECL2)A (Homo sapiens, UniProt Q969V1, F177A).
T3 construct: expressed in transfected cells; host or cells: AD293
The test is described as follows: IP-One IP1 accumulation assay, MCHR2 F177A. The note with it: n = 3 in triplicate. The text has this:
(§3) The gene sequences encoding human MCHR1 (residues 70‒405) and MCHR2 (residues 1‒331, with L256^6.40Y mutation) were subcloned into pFastBac vector (Invitrogen) with an N-terminal haemagglutinin signal peptide (HA) and a thermostabilized BRIL fusion, followed by a C-terminal 15-amino acid linker, a LgBiT subunit and two MBPs to facilitate receptor expression and stability. The Gαi construct was designed with dominant-negative mutations S47N, G203A, A326S, and E245A to decrease the affinity of nucleotide-binding and stable Gαβγ complex. The mini-Gαq construct was designed with the C-terminal α-helix (αH5) of Gαq, which is critical for G protein coupling selectivity. The core of the construct, known as the Ras domain, is derived from Gαs. This design choice was made to enable the binding of the nanobody Nb35, which stabilizes the complex for cryo-EM analysis. […]
(§4) IP1 accumulation assay was applied for the detection of the downstream Gαq signal of MCHR2 using the IP-One HTRF kit (Cisbio). […] Before measurement, the samples were incubated at RT for 30 min and measured with EnVision multi-plate reader (PerkinElmer).
(§5) Concentration–response curves were evaluated with a three-parameter logistic equation. The significance was determined with one-way ANOVA with Tukey’s test, and P < 0.05 vs wild type was considered statistically significant.

The target of the next test is T4, MCHR2 F186(45.52)A (Homo sapiens, UniProt Q969V1, F186A).
T4 construct: expressed in transfected cells; host or cells: AD293
The test can be described thus: IP-One IP1 accumulation assay, MCHR2 F186A. The note with it: AD293, mean ± S.E.M., n = 3 in triplicate.
Source text: as §3, §4, §5

In another test the target is T5, MCHR2 Y288(7.35)A (Homo sapiens, UniProt Q969V1, Y288A).
T5 construct: expressed in transfected cells; host or cells: AD293
The test can be described thus: IP-One IP1 accumulation assay, MCHR2 Y288A. The note with it: n = 3 in triplicate.
Source text: as §3, §4, §5

Setting [1] is: AD293, IP-One HTRF, 37 °C 1 h, mean ± S.E.M., P < 0.0001 vs WT.

What is called Emax is the greatest response seen or fitted, relative to the assay's reference. Usually EC50 stands for the concentration that produces a half-maximal response.

T5 sequence (Q969V1 whole entry Y288A): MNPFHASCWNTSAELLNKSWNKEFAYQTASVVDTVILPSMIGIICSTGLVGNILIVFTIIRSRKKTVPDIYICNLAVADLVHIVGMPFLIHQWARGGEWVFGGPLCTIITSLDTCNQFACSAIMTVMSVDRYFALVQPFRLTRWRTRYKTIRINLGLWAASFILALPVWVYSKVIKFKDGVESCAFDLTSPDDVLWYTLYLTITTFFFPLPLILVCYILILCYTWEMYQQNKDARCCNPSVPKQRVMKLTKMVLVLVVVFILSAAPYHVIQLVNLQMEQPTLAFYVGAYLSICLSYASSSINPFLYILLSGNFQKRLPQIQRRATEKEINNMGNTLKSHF
T3 sequence (Q969V1 whole entry F177A): as the sequence (Q969V1 whole entry Y288A) above, with F177A, A288Y counted along it
T4 sequence (Q969V1 whole entry F186A): as the sequence (Q969V1 whole entry Y288A) above, with F186A, A288Y counted along it
T1 sequence (Q99705 whole entry Q127A): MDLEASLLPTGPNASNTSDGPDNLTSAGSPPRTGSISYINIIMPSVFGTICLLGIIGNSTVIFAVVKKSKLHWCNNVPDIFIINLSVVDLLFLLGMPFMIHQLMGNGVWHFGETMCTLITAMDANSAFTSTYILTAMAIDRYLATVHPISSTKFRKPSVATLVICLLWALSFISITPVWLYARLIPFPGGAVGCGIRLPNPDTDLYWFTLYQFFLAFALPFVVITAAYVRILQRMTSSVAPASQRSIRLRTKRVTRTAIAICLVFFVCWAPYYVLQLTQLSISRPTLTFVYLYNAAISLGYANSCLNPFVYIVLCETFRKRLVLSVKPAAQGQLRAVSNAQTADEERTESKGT
T2 sequence (Q99705 whole entry I297A): as the sequence (Q99705 whole entry Q127A) above, with A127Q, I297A counted along it

Consider `CSCC[C@@H]1NC(=O)[C@@H](NC(=O)[C@H](CCCNC(=N)N)NC(=O)[C@H](CC(C)C)NC(=O)[C@H](CCSC)NC(=O)[C@H](CC(=O)O)NC(=O)[C@H](Cc2ccccc2)NC(=O)[C@@H](N)CC(=O)O)CSSC[C@@H](C(=O)N[C@@H](Cc2c[nH]c3ccccc23)C(=O)N[C@@H](CCC(N)=O)C(=O)N[C@H](C(=O)O)C(C)C)NC(=O)[C@@H]2CCCN2C(=O)[C@H](CCCNC(=N)N)NC(=O)[C@H](Cc2ccc(O)cc2)NC(=O)[C@H](C(C)C)NC(=O)[C@H](CCCNC(=N)N)NC(=O)CNC(=O)[C@H](CC(C)C)NC1=O` [MCH, Melanin-concentrating hormone], for which the maximum response (Emax) on MCHR1 Q196(3.36)A was determined as 97 ± 1%; on MCHR1 I366(7.39)A, 90 ± 5%; at MCHR2 F177(ECL2)A (AD293, mean ± S.E.M.), 97 ± 2%; at MCHR2 F186(45.52)A it was 98%; on MCHR2 Y288(7.35)A (AD293, mean ± S.E.M.), 84 ± 2%. Also, the EC50 is 3980 nM on MCHR2 F177(ECL2)A (setting [1]) and 1230 nM on MCHR2 Y288(7.35)A (setting [1]).
